Measurements published in US20190030036A1, “PHOSPHODIESTERASE INHIBITOR TREATMENT” (Cyrano Therapeutics, Inc., priority 2013, published 2019).
Read-outs that look alike come from different tables or passages of the source.

Experiments:
Body weight (Example 8) = format: in vivo, human
[1] = Plasma theophylline level, intranasal theophylline pilot study (Example 7); format: in vivo, human; conditions: intranasal theophylline 20 μg per naris once a day; eight patients
Description: Blood was obtained by venipuncture to collect plasma and red blood cells used to measure trace metals (Cu, Zn, Mg), various enzymes, theophylline and other chemical moieties.

cGMP = assay: Parotid saliva cGMP after oral theophylline (Example 2); format: in vivo, human; conditions: for saliva cGMP levels over initial values: improved patients; for cGMP: parotid saliva
Protocol: Parotid saliva was collected from each patient by application of a Lashley cup over Stensen's duct with lingual stimulation by placement of concentrated lemon juice. Saliva was collected in plastic tubes and stored at −20° C. until assayed. cAMP and cGMP were measured in saliva by a sensitive 96 plate spectrophotometric assay (R&D Systems, Minneapolis, Minn.).
All patients were placed in a fixed design open label clinical trial with treatment with oral theophylline. Treatment consisted of fixed treatment periods of two-eight months with sequential doses of the drug at 200 mg, 400 mg and 600 mg. At termination of each of these intervals, patients returned to study site for reevaluation. At the end of each interval subjective responses to treatment were measured with a modification of the 0-100 scale previously used. Subjective responses to treatment were graded on a sliding scale from −100−0-+100 with patients recording improvement (+0-+100), no improvement (0) or worsening (0-−100) of their overall smell function. If overall smell function improved ≥5% they were considered to improve clinically (1). If smell function improved <5% they were considered not to improve (1). At the end of each interval subjective measurements of smell function, measurements of DT, RT, ME and H and measurements of parotid saliva for levels of cAMP and cGMP were obtained. In addition, blood plasma was obtained by venipuncture, placed in ice into zinc free tubes which contained 100 mg zinc free heparin, centrifuged at 3000 rpm for 10-20 min, the plasma transferred to plastic PCR tubes and stored at −20° C. until assayed. Theophylline was assayed by a fluorescence polarization assay (Abbott, Chicago, Ill.), as previously described.
Data for the cyclic nucleotides from these 31 patients was not analyzed until the entire study of the 312 patients in Example 1 was assembled and analyzed in its entirety. After completion of these analyses, all data for parotid saliva cAMP and cGMP from all patients in whom salivary cAMP and cGMP were obtained were assembled. Levels of salivary cyclic nucleotides varied widely. Initially, without external criteria, there was no way to understand these disparate data. […] In a similar manner, measurements of each patient's plasma theophylline level at each dosage of theophylline (at 200 mg, 400 mg, 600 mg of theophylline) were categorized. The two patient groups were also analyzed post hoc with respect to type of smell loss and etiology of smell loss.

patients with hyposmia = assay: Subjective taste and smell response, intranasal theophylline pilot study (Example 7); conditions: intranasal theophylline 20 μg per naris once a day, four weeks; six of first eight patients
Description: These patients were previously treated with oral theophylline or were switched from oral theophylline to intranasal theophylline at the start of the study. Selection for inclusion in the intranasal study was based upon several criteria. 1) non-response to oral theophylline; 2) severe side effects with oral theophylline that prevented reaching a dose of sufficient strength to restore smell function; and/or 3) preference for intranasal medication over oral medication.
Subjective responses to treatment were obtained independent of any interaction with the clinical staff by using a scale of 0-100 to measure response of taste function and smell function to treatment with 0 indicating no response, 100 indicating return to normal function and intermediate numbers indicating an intermediate response.
The patients inserted a plastic syringe containing 0.4 ml of fluid (20 μg theophylline) into each naris once a day. […] The drug dose was delivered through a plastic nipple which fitted snugly onto the filled syringe which was attached directly to the nipple. One nipple was supplied for each set of two syringes in each application kit. The patient fitted the nipple on one syringe, placed the nipple securely into the lower naris and injected the contents of the syringe directly into the lower vault of one naris accompanied by a modest inhalation. […]

asthmatic patients = assay: sGaw after inhaled dry powder in asthmatic patients (Examples 5, 6)
Protocol: (§1) To test this theory, asthmatic patients are enrolled in a dose escalating single blind study. On arrival to the clinic, subjects are allowed to rest for 20 minutes before baseline measurements of FEV1 (six recordings) and sGaw (five recordings) are made. Subjects receive a dry powder dispenser loaded with a dose of 2 mg theophylline or a dry powder carrier. […] After each inhalation, measurements of sGaw are made at 1, 3, 5, 10, 15, 20, 25, and 30 minutes.
On completion of the last recording, subjects inhale a 200 μg dose of salbutamol from a metered inhaler and a further measurement of sGaw is made after 15 minutes. Subjects are also monitored for coughing and are questioned about the taste of the drug.
as §1, with “Asthmatic patients” for “To test this theory, asthmatic patients”, “of 1” for “of 2”, “mg IBMX formulated as a dry powder” for “mg theophylline”
On completion of the last recording, subjects inhale a 200 μg dose of salbutamol from a metered inhaler and a further measurement of sGaw made after 15 minutes. Subjects are also be monitored for coughing and are questioned about the taste of the drug.

[2] = test system: patients with hyposmia and hypogeusia
Protocol: Subjective changes in smell and taste function under each study condition were measured by questionnaire before measurements of smell or taste function. Responses were graded on a scale from 0 to 100, with 0 reflecting no subjective response in overall sensory function; 100, return to normal sensory function; and values between 0 and 100 intermediate responses. Overall sensory function was defined as the ability to smell all odors and identify all tastants, although response intensity varied.
In this prior trial, oral theophylline was administered daily in 2 divided doses (at breakfast and lunch) of 200, 400, 600, or 800 mg for 2 to 12 months of treatment. Treatment was divided into 2- to 4-month periods, at which time patients returned to The Clinic for measurements of subjective sensory responses, olfactometry, gustometry, serum theophylline level, and body weight.
Each patient delivered the theophylline dose in each naris once daily throughout the study. Patients underwent evaluation 1, 2, and 4 weeks during drug use with the same measurements used for the oral study.
Values for the oral trial were taken from the last measurements made before discontinuation of oral drug treatment and before initiation of the intranasal trial. […] Values for the intranasal pilot study were taken from measurements obtained after completion of 4 weeks of intranasal treatment.

[3] = test system: patients with hyposmia and hypogeusia; assay: Adverse effects of intranasal theophylline (Example 8); format: in vivo, human; conditions: intranasal theophylline 20 μg/d in each naris, 4 weeks
Protocol: Under each condition, we performed subjective evaluations of taste and smell functions, quantitative measurements of taste (gustometry) and smell (olfactometry), and measurements of serum theophylline level and body weight.
The intranasal administration device was a calibrated 1 mL syringe fitted with a nozzle that fit comfortably into the anterior naris (Wolfe Tory Medical, Inc) and loaded under sterile conditions with 20 μg of theophylline methylpropyl paraben in a 0.4-mL saline solution (Foundation Care). Patients were instructed to direct the spray superiorly into the nasal cavity but not posteriorly into the nasopharynx. This technique was practiced before study initiation with sterile saline.

[4] = inhaled dry powder 2 mg theophylline

In the case of `Cn1c(=O)c2[nH]cnc2n(C)c1=O` [theophylline], the “mean serum theophylline level” value (during intranasal theophylline 20 μg/d in each naris) is reported as 0.0 (0.0), the “mean (SEM) serum theophylline level” value (human, in vivo, po) is reported as 6.4 (2.0) mg/L and the “mean (SEM) weight increase from pretreatment values” (Body weight (Example 8); intranasal theophylline 20 μg/d in each naris) is reported as 2.5 (0.5) kg. For the same compound, the “mean (SEM) weight increase from pretreatment values” (Body weight (Example 8); oral theophylline 200 to 800 mg/d) was 1.5 (0.4) kg, the plasma theophylline levels [1] was “zero” and the “saliva cGMP levels over initial values” (cGMP; oral theophylline 400 mg) was 275%. For the same compound, the “saliva cGMP levels over initial values” (cGMP; oral theophylline 600 mg) was 338%, the cGMP (cGMP; oral theophylline 200 mg, patients with improved smell function (15)) was 0.08 ± 0.016 pmol/mL and the cGMP (cGMP; oral theophylline 200 mg, patients with unimproved smell function (9)) was 0.07 ± 0.018 pmol/mL. The cGMP (cGMP; oral theophylline 400 mg, patients with unimproved smell function (4)) was 0.05 ± 0.014 pmol/mL, the cGMP (cGMP; oral theophylline 600 mg, patients with unimproved smell function (5)) was 0.04 ± 0.07 pmol/mL and the “patients with subjective improvement in smell function” value (patients with hyposmia) was 75%. For the same compound, the “sGaw above the baseline measurement” value (asthmatic patients; after 30 minutes, inhaled dry powder 2 mg theophylline) was 20%, the taste and coughing (asthmatic patients; dry powder formulation of theophylline vs nebulized liquid) was “without the unpleasant taste or the induction of coughing” and the “increase in sGaw relative to 200 μg inhaled salbutamol” value (asthmatic patients; [4]) was “comparable”. The “time until sGaw baseline is reached” value (asthmatic patients; [4]) was 1 h, the “earliest time improvement was measured” value ([2]; intranasal theophylline) was 1 week and the “improvement in taste and smell functions compared with oral treatment” value ([2]; intranasal theophylline 20 μg/d in each naris, 4 weeks) was 2 fold. For the same compound, the “patients reporting overall improvement in taste and smell functions” value ([2]; intranasal theophylline 20 μg/d in each naris, 4 weeks, 10 patients) was 8 patients, the “earliest time improvement was measured” value ([2]; oral theophylline) was 2 months and the “patients reporting overall increased taste and smell function” value ([2]; oral theophylline 200 to 800 mg/d, 2 to 12 months, 10 patients) was 6 patients. The adverse effects [3] was “No adverse effects”.
